IC50 data for one sequence are collected here from PMC4143171 (Journal of nuclear medicine : official publication, Society …, 2010).

The assay addresses integrin receptors expressed on surface of U87MG glioblastoma cells (Homo sapiens, UniProt P05106+P06756). Description: U87MG competition binding assay.

Bridges are numbered along the chain shown (N, C = ends). Where no end group is shown, it is not given here.

The IC50 is the concentration that inhibits the measured activity by half. Read a high IC50 as a need for much substance. Sequence “ECESGPCCRNCKFLKEGTICKRARGDDMDDYCNGKTCDCPRNPHKGPAT (disulfide 2-11, 7-32, 8-37, 20-39 (inferred)) [echistatin]” showed a concentration for half-maximal inhibition (IC50) of 3.3 ± 0.6 nM.
